Measurements: patent US5342851A, “Substituted thiazole derivatives useful as platelet aggregation inhibitors” (McNeil-PPC, Inc., priority 1992, dated 1994)
Counter-ions that a name gives are not always drawn.

Key:
[1] = test system: activated platelets (125I-fibrinogen binding); assay: Fibrinogen Binding (125I-fibrinogen binding to activated platelets); conditions: read-out: Binding (IC50, concentration of compound which provides 50% fibrinogen binding); thrombin-stimulated platelets; 0.15 μM 125I-fibrinogen
Procedure: The compounds of the invention as identified above are evaluated for platelet aggregation inhibition activity as indicated by the percentage of nonaggregated platelets which are available for binding in accordance with the following procedure.
Briefly, 40 mL of PRP (obtained from Biological Specialty Corp., Lansdale, Pa.) are centrifuged at 120×g to remove contaminating red cells. Aspirin (50 μM) is added and the PRP is incubated at 37° C. for 20 minutes. […] Platelets are concentrated by a 300×g centrifugation (10 minutes) and the pellet is resuspended in 4 mL. of Tyrode's buffer. The platelet suspension (4 mL) is gel-filtered through a Sepharose-2B column (50 mL bed volume). […] The binding reaction is performed in polystyrene tubes (final volume […]). Reagents are added in the following order: 80 mL of Tyrode's buffer, 50 mL of CaCl2 (final concentration (f.c.) […]) and 50 mL of thrombin (f.c. 0.1 unit/mL). The platelet suspension is then added and the mixture is allowed to incubate at room temperature for 2 minutes. Hirudin (50 mL, f.c. 0.5 unit/mL) is immediately added to prevent the catalytic activity of thrombin. […] The mixture is incubated for 10 minutes at room temperature. To terminate the binding reaction the platelets are sedimented (10,000×g for 3 minutes) through silicone oil (3:1 hi-phenol 550/methyl silicone 200, W. F. Nye, Inc., New Bedford, Mass.), in an Eppendorf centrifuge.
The amount of platelet radioactivity measured in the presence of nonlabeled fibrinogen (4 mg/mL) is considered the nonspecific binding. All samples are repeated in triplicate.
Positive percentages of fibrinogen binding indicates higher activity for inhibiting platelet aggregation since only non-aggregated or free platelets are available for fibrinogen binding.

[2] = test system: platelets (gel-filtered platelet rich plasma); assay: Platelet Aggregation Inhibition Activity (agonist thrombin or ADP, light transmission); type: cell-based; conditions: for IC50: read-out: Aggregation (IC50, concentration at which the increase in light transmission equals 50%), thrombin or ADP agonist, 37° C., three minutes
Procedure: The percentage of platelet aggregation is calculated as an increase in light transmission of drug treated platelet concentrate versus control treated platelet concentrate. Blood is obtained from drug free, normal donors into tubes containing 0.13M sodium citrate (two sources are routinely used: platelet concentrate obtained from Biological Specialty Corp., Lansdale, Pa. or whole blood obtained from donors). Platelet rich plasma (PRP) is collected by centrifugation of the concentrate or whole blood at 130×g for 15 minutes at 25° C. The PRP (5 mL) is gel filtered through Sepharose 2B (bed volume 50 mL), and the platelet count is adjusted to 2×10^7 platelets per sample. The following constituents are added to a siliconized cuvette: 250 μL of the concentrated platelet filtrate, 100 μL of Tyrode's buffer (0.14M NaCl, 0.0027M KCl, 0.012M NaHCO3, 0.76 mM Na2 HPO4, 0.0055M glucose and 2 mg/mL BSA pH 7.4), 50 μL of 2 mM calcium and test drug (50 mL).
Aggregation is monitored in a dual channel Chrono-log Aggregometer for three minutes following the addition of agonist (thrombin 50 μL of 1 unit/mL, or ADP 50 μL of 100 μM). The final assay volume is 500 μL. The reaction takes place at 37° C. The peak aggregation response is calculated as the increase in light transmission units over a three minute period. The difference of the increase in light transmission between control and drug treated platelets is then expressed as a percent of the nondrug treated controls. […] A percentage increase in light transmission indicates platelet aggregation inhibition activity for the tested compound.

[3] = Homo sapiens, thrombin or ADP agonist, read-out: Aggregation (percentage increase in light transmission)

Row | IC50 [1] | IC50 [2] | Compound | further results
1 | 6 µM | – | CCN(CC)CCNC(=O)c1cnn(-c2nc(-c3cccc(C(F)(F)F)c3)cs2)c1C(F)(F)F [Example 34] | –
2 | – | 75 µM | CCN(CC)CCNC(=O)c1cnn(-c2nc(-c3ccc([N+](=O)[O-])cc3)cs2)c1C(F)(F)F [Example 35] | –
3 | 50 µM | – | CN(C)CCCNC(=O)c1cnn(-c2nc(-c3ccc([N+](=O)[O-])cc3)cs2)c1C(F)(F)F [Example 36] | –
4 | 4 µM | 15 µM | CCN(CC)CCCNC(=O)c1cnn(-c2nc(-c3cccc(C(F)(F)F)c3)cs2)c1C(F)(F)F [Example 37] | –
5 | 75 µM | 56 µM | CCCCN(CCCC)CCCNC(=O)c1cnn(-c2nc(-c3cccc(C(F)(F)F)c3)cs2)c1C(F)(F)F [Example 38] | –
6 | 16 µM | 30 µM | CN(C)CCCNC(=O)c1cnn(-c2nc(-c3cccc(C(F)(F)F)c3)cs2)c1C(F)(F)F [Example 39] | –
7 | 65 µM | 30 µM | CCN(CC)CCCNC(=O)c1cnn(-c2nc(-c3cccc(OC)c3)cs2)c1C(F)(F)F [Example 40] | –
8 | – | 30 µM | CCN(CC)CCCNC(=O)c1cnn(-c2nc(-c3ccc(OC)cc3)cs2)c1C(F)(F)F [Example 41] | –
9 | 70 µM | 6 µM | CCN(CC)CCCNC(=O)c1cnn(-c2nc(-c3ccc(C)cc3)cs2)c1C(F)(F)F [Example 43] | –
10 | 8.5 µM | 45 µM | CCCCN(CCCC)CCCNC(=O)c1cnn(-c2nc(-c3ccc(C)cc3)cs2)c1C(F)(F)F [Example 45] | –
11 | 11.3 µM | 2.7 µM | CCN(CC)CCCNC(=O)c1cnn(-c2nc(-c3cccc(C(F)(F)F)c3)c(Br)s2)c1C(F)(F)F [Example 46] | –
12 | – | 5.6 µM | CCN(CC)CCCNC(=O)c1cnn(-c2nc(-c3cc(OC)c(OC)c(OC)c3)cs2)c1C(F)(F)F [Example 47] | –
13 | 50 µM | 30 µM | CCN(CC)CCCNC(=O)c1cnn(-c2nc(-c3ccccc3)cs2)c1C(F)(F)F [Example 50] | –
14 | – | 30 µM | O=C(NCCN1CCCC1)c1cnn(-c2nc(-c3cccc(C(F)(F)F)c3)cs2)c1C(F)(F)F [Example 51] | –
15 | – | 6 µM | CCN(CC)CCCCNC(=O)c1cnn(-c2nc(-c3cccc(C(F)(F)F)c3)cs2)c1C(F)(F)F [Example 52] | –
16 | – | 10 µM | CC1CCCCN1CCCNC(=O)c1cnn(-c2nc(-c3cccc(C(F)(F)F)c3)cs2)c1C(F)(F)F (stereo not shown) [Example 54] | –
17 | – | 30 µM | Cc1cccc(-c2csc(-n3ncc(C(=O)NCCN4CCCCC4)c3C(F)(F)F)n2)c1 [Example 55] | –
18 | – | 4 µM | CCN(CC)CCCNC(=O)c1cnn(-c2nc(-c3ccc(C(F)(F)F)cc3)cs2)c1C(F)(F)F [Example 56] | –
19 | – | 7 µM | O=C(NCCN1CCCCC1)c1cnn(-c2nc(-c3ccc(C(F)(F)F)cc3)cs2)c1C(F)(F)F [Example 57] | –
20 | – | 11.5 µM | NCCCCCNC(=O)c1cnn(-c2nc(-c3cccc(C(F)(F)F)c3)cs2)c1C(F)(F)F [Example 61] | –
21 | 8.3 µM | 4.6 µM | NCCCCNC(=O)c1cnn(-c2nc(-c3cccc(C(F)(F)F)c3)cs2)c1C(F)(F)F [Example 62] | –
22 | 10 µM | 13 µM | O=C(NCCCN1CCCCC1)c1cnn(-c2nc(-c3cccc(C(F)(F)F)c3)cs2)c1C(F)(F)F [Example 89, 2-[4-[3-(N-Piperidino)propylcarbamoyl]-5-(trifluoromethyl)pyrazol-1-yl]-4-(3-trifluoromethylphenyl)thiazole] | –
23 | 14 µM | 15 µM | O=C(NCCCN1CCCC1)c1cnn(-c2nc(-c3cccc(C(F)(F)F)c3)cs2)c1C(F)(F)F [Example 90] | –
24 | 10 µM | 5 µM | Cc1c(C(=O)NCCCN2CCCCC2)cnn1-c1nc(-c2cccc(C(F)(F)F)c2)cs1 [Example 91] | –
25 | – | 10 µM | Cc1ccc(-c2csc(-n3ncc(C(=O)NCCCN4CCCCC4)c3C(F)(F)F)n2)cc1 [Example 92] | –
26 | – | 30 µM | Cc1ccc(-c2csc(-n3ncc(C(=O)NCCCN4CCCC4)c3C(F)(F)F)n2)cc1 [Example 93] | –
27 | – | 40 µM | O=C(NCCCN1CCCCC1)c1cnn(-c2nc(-c3ccccc3)cs2)c1C(F)(F)F [Example 94] | –

Row | IC50 [1] | IC50 [2] | Compound | further results
28 | – | 3.5 µM | Cc1ccc(-c2csc(-n3ncc(C(=O)NCCCNC4CCCCC4)c3C(F)(F)F)n2)cc1 [Example 96] | –
29 | – | 10 µM | O=C(NCCCN1CCCCC1)c1cnn(-c2nc(-c3ccc(Cl)c(Cl)c3)cs2)c1C(F)(F)F [Example 97] | –
30 | – | 30 µM | Cc1cccc(-c2csc(-n3ncc(C(=O)NCCCN4CCCC4)c3C(F)(F)F)n2)c1 [Example 99] | –
31 | – | 30 µM | O=C(NCCCN1CCCCC1)c1cnn(-c2nc(-c3ccccc3C(F)(F)F)cs2)c1C(F)(F)F [Example 100] | –
32 | – | 15 µM | O=C(NCCCN1CCCC1)c1cnn(-c2nc(-c3ccccc3C(F)(F)F)cs2)c1C(F)(F)F [Example 101] | –
33 | 25 µM | 6 µM | O=C(NCCCNC1CCCCC1)c1cnn(-c2nc(-c3cccc(C(F)(F)F)c3)cs2)c1C(F)(F)F [Example 102] | –
34 | 44 µM | 8 µM | O=C(NCCCNC1CCCCC1)c1cnn(-c2nc(-c3ccc(C(F)(F)F)cc3)cs2)c1C(F)(F)F [Example 105] | –
35 | – | 30 µM | O=C(NCCCN1CCCCC1)c1cnn(-c2nc(-c3cccc(Cl)c3)cs2)c1C(F)(F)F [Example 106] | –
36 | – | 5 µM | O=C(NCCCNC1CCCCC1)c1cnn(-c2nc(-c3cccc(Cl)c3)cs2)c1C(F)(F)F [Example 107] | –
37 | – | 20 µM | O=C(NCCCNC1CCCCC1)c1cnn(-c2nc(-c3cccc(C(F)(F)F)c3)cs2)c1-c1ccccc1 [Example 108] | –
38 | – | 6 µM | O=C(NCCCN1CCCCCC1)c1cnn(-c2nc(-c3cccc(C(F)(F)F)c3)cs2)c1C(F)(F)F [Example 109] | –
39 | – | 5 µM | CC(C)NCCCNC(=O)c1cnn(-c2nc(-c3cccc(C(F)(F)F)c3)cs2)c1C(F)(F)F [Example 112] | –
40 | 10 µM | 3.1 µM | CCCCNCCCNC(=O)c1cnn(-c2nc(-c3cccc(C(F)(F)F)c3)cs2)c1C(F)(F)F [Example 113] | –
41 | 10 µM | 7 µM | CCCNCCCNC(=O)c1cnn(-c2nc(-c3cccc(C(F)(F)F)c3)cs2)c1C(F)(F)F [Example 114] | –
42 | 23 µM | 13 µM | CN1CCN(CCCNC(=O)c2cnn(-c3nc(-c4cccc(C(F)(F)F)c4)cs3)c2-c2ccccc2)CC1 [Example 120] | –
43 | 15 µM | 6 µM | NCCCNC(=O)c1cnn(-c2nc(-c3cccc(C(F)(F)F)c3)cs2)c1C(F)(F)F [Example 121, 2-[4-(3-Aminopropylcarbamoyl)-5-(trifluoromethyl)pyrazol-1-yl]-4-(3-trifluoromethylphenyl)thiazole Monohydrochloride] | –
44 | 10 µM | 14.7 µM | NCCCNC(=O)c1cnn(-c2nc(-c3cccc(Cl)c3)cs2)c1C(F)(F)F [Example 122] | –
45 | – | 7 µM | CN(C)C=NCCCNC(=O)c1cnn(-c2nc(-c3cccc(Cl)c3)cs2)c1C(F)(F)F [Example 132, 2-[4-(3-(N,N-Dimethylformamidinyl)propylcarbamoyl]5-(trifluoromethyl)pyrazol-1-yl]-4-(3-chlorophenyl)thiazole] | –
46 | – | 2.1 µM | NCCCOCc1cnn(-c2nc(-c3cccc(C(F)(F)F)c3)cs2)c1C(F)(F)F [Example 138, 2-[4-[3-Aminopropoxymethyl]-5-(trifluoromethyl)pyrazol-1-yl]-4-(3-trifluoromethylphenyl)thiazole Hydrochloride] | –
47 | – | 12.8 µM | CCN(CC)CCNC(=O)c1ccc(-c2csc(-c3ccc(Cl)cc3)n2)cc1 [Example 177] | –
48 | – | – | CCN(CC)CCNC(=O)c1ccc(-c2csc(-c3ccc(C(C)(C)C)cc3)n2)cc1 [Example 181] | inhibition at 20 µM [2, 3]: 85%
49 | – | – | COc1ccc(-c2nc(-c3ccc(C(=O)NCCCN(C)C)cc3)cs2)cc1 [Example 187] | inhibition at 20 µM [2, 3]: 89%
50 | – | – | CC(C)N(CCCCNC(=O)c1ccc(-c2csc(-c3ccc(C(F)(F)F)cc3)n2)cc1)C(C)C [Example 189] | inhibition at 20 µM [2, 3]: 86%
51 | – | 5.1 µM | CCN(CC)CCCNC(=O)c1ccc(-c2csc(COc3ccc(Cl)cc3)n2)cc1 [Example 206] | –
52 | – | – | CCCCNCCCNC(=O)c1ccc(-c2csc(-c3ccc(C(F)(F)F)cc3)n2)cc1 [Example 218] | inhibition at 20 µM [2, 3]: 90%
53 | 13.5 µM | – | Cn1c(C(=O)NCCCNC2CCCCC2)ccc1-c1nc(-c2cccc(C(F)(F)F)c2)cs1 [Example 236, 2-[2-(4-Cyclohexylaminopropylcarbamoyl)-1-methyl-1H-pyrrol-5-yl]-4(3-trifluoromethylphenyl)thiazole] | –
54 | – | – | Cn1c(C(=O)NCCCN)ccc1-c1nc(-c2ccccc2)c(C(=O)O)s1 [Example 237, 2-[2-(4-Aminopropylcarbamoyl)-1-methyl-1H-pyrrol-5-yl]-4-phenyl-1,3-thiazole-5-carboxylic acid monohydrochloride monohydrate] | inhibition at 50 µM ([2]; Homo sapiens, at 50 μM, thrombin or ADP agonist, read-out: Aggregation (percentage increase in light transmission)): 68%
